ChEMBL document CHEMBL3885861, “Open TG-GATES”

Species on record: Rattus norvegicus
Assay: Open TG-GATES - Regimen: Daily Repeat
Assay type: toxicity, organism-based, Sprague-Dawley
Set-up: regimen Daily Repeat, gender Male, age 6 weeks
Settings: in vivo, po, 1000 mg/kg, route gavage, dose level Middle; for Bas / Eos / Hb / Ht / Lym / MCH / MCHC / MCV / Mono / Neu / Plat / RBC / Ret / WBC: tissue Blood; for KIDNEY_L / KIDNEY_R / KIDNEY_TOTAL: tissue Kidney; for LIVER: tissue Liver; for A/G / ALP / ALT / AST / BUN / CRE / Ca / Cl / DBIL / GLC / IP / K / LDH / Na / PL / RALB / TBIL / TC / TG / TP / gamma-GTP: tissue Plasma

## CC(N)=O [ACETAMIDE]
72 h, time 3 day
  TERMINAL_BW: 241.7 g
  Bas: 0%
  Eos: 0.6%
  Hb: 12.4 g/dL
  Ht: 38.2%
  Lym: 75.6%
  MCH: 20.1 pg
  MCHC: 32.4%
  MCV: 62 fL
  Mono: 3.8%
  Neu: 19%
  Plat: 119 x10_4/uL
  RBC: 617.4 x10_4/ul
  Ret: 7.8%
  WBC: 118.5 x10_2/uL
  KIDNEY_L: 1 g
  KIDNEY_R: 1 g
  KIDNEY_TOTAL: 2 g
  LIVER: 11.3 g
  A/G: 1
  ALP: 1645.6 IU/L
  ALT: 50.4 IU/L
  AST: 84 IU/L
  BUN: 17.2 mg/dL
  CRE: 0.1 mg/dL
  Ca: 10.9 mg/dL
  Cl: 104.4 meq/L
  DBIL: 0 mg/dL
  GLC: 186 mg/dL
  IP: 6.7 mg/dL
  K: 4.4 meq/L
  LDH: 228.8 IU/L
  Na: 140.3 meq/L
  PL: 161.8 mg/dL
  RALB: 2.8 g/dL
  TBIL: 0.004 mg/dL
  TC: 82.2 mg/dL
  TG: 130.3 mg/dL
  TP: 5.6 g/dL
  gamma-GTP: 0.9 IU/L
[…], time 7 day
  TERMINAL_BW: 269.7 g
  Bas: 0%
  Eos: 0.8%
  Hb: 13 g/dL
  Ht: 39.6%
  Lym: 79.2%
  MCH: 20 pg
  MCHC: 32.8%
  MCV: 60.8 fL
  Mono: 2.4%
  Neu: 17.2%
  Plat: 113.6 x10_4/uL
  RBC: 650.4 x10_4/ul
  Ret: 6.5%
  WBC: 128.6 x10_2/uL
  KIDNEY_L: 1.2 g
  KIDNEY_R: 1.2 g
  KIDNEY_TOTAL: 2.4 g
  LIVER: 11.7 g
  A/G: 1
  ALP: 2048.4 IU/L
  ALT: 47.4 IU/L
  AST: 87.2 IU/L
  BUN: 16 mg/dL
  CRE: 0.1 mg/dL
  Ca: 10.7 mg/dL
  Cl: 104.7 meq/L
  DBIL: 0 mg/dL
  GLC: 186.2 mg/dL
  IP: 6.4 mg/dL
  K: 4.2 meq/L
  LDH: 199 IU/L
  Na: 142.7 meq/L
  PL: 168 mg/dL
  RALB: 2.8 g/dL
  TBIL: 0 mg/dL
  TC: 83.6 mg/dL
  TG: 141.4 mg/dL
  TP: 5.7 g/dL
  gamma-GTP: 0.7 IU/L
[…], time 14 day
  TERMINAL_BW: 332.5 g
  Bas: 0%
  Eos: 1%
  Hb: 13.3 g/dL
  Ht: 39.8%
  Lym: 81%
  MCH: 19.7 pg
  MCHC: 33.4%
  MCV: 59.2 fL
  Mono: 2.8%
  Neu: 14.2%
  Plat: 118.6 x10_4/uL
  RBC: 672.6 x10_4/ul
  Ret: 4.8%
  WBC: 106.1 x10_2/uL
  KIDNEY_L: 1.3 g
  KIDNEY_R: 1.4 g
  KIDNEY_TOTAL: 2.7 g
  LIVER: 14 g
  A/G: 0.9
  ALP: 1740 IU/L
  ALT: 43.8 IU/L
  AST: 79.2 IU/L
  BUN: 18.4 mg/dL
  CRE: 0.2 mg/dL
  Ca: 10.5 mg/dL
  Cl: 104.6 meq/L
  DBIL: 0 mg/dL
  GLC: 180.8 mg/dL
  IP: 6.4 mg/dL
  K: 4.3 meq/L
  LDH: 285.4 IU/L
  Na: 142.1 meq/L
  PL: 153.6 mg/dL
  RALB: 2.8 g/dL
  TBIL: 0.002 mg/dL
  TC: 83 mg/dL
  TG: 135.3 mg/dL
  TP: 5.7 g/dL
  gamma-GTP: 0.7 IU/L
[…], time 28 day
  TERMINAL_BW: 409 g
  Bas: 0%
  Eos: 1%
  Hb: 14.5 g/dL
  Ht: 43.1%
  Lym: 81.6%
  MCH: 18.9 pg
  MCHC: 33.7%
  MCV: 56.2 fL
  Mono: 2.4%
  Neu: 14.4%
  Plat: 93.5 x10_4/uL
  RBC: 767.8 x10_4/ul
  Ret: 2.8%
  WBC: 140.9 x10_2/uL
  KIDNEY_L: 1.6 g
  KIDNEY_R: 1.6 g
  KIDNEY_TOTAL: 3.1 g
  LIVER: 15.5 g
  A/G: 0.9
  ALP: 1250.4 IU/L
  ALT: 48.6 IU/L
  AST: 81 IU/L
  BUN: 16.8 mg/dL
  CRE: 0.2 mg/dL
  Ca: 10.3 mg/dL
  Cl: 103.7 meq/L
  DBIL: 0.006 mg/dL
  GLC: 197.2 mg/dL
  IP: 5.2 mg/dL
  K: 4 meq/L
  LDH: 207 IU/L
  Na: 142 meq/L
  PL: 148.2 mg/dL
  RALB: 2.8 g/dL
  TBIL: 0.006 mg/dL
  TC: 75.2 mg/dL
  TG: 122 mg/dL
  TP: 6.1 g/dL
  gamma-GTP: 0.9 IU/L
